Data reported in paper PMC3506384 (Cancer chemotherapy and pharmacology, 2011).
Like-named read-outs stand apart in the source and are kept apart here.

Experiments:
[1] = Serum anticonvulsant levels in group A patients; assay type: in vivo, human; conditions: all 3 patients in group A; at PK sampling on days 2 and 9 of cycle 1
[2] = Phase I dose escalation; assay type: in vivo, human
[3] = cited from earlier work
[4] = co-administration of ketoconazole; cited from earlier work
[5] = cited from earlier work; remark: listed apart in the source
[6] = clinical; conditions: human, plasma; for half-life: intravenous
[7] = Bortezomib plasma pharmacokinetics, non-compartmental, LC-MS/MS
[8] = patients not taking concomitant HEIAs (group B)
[9] = Day 2, bortezomib 1.0 mg/m^2, group A (taking HEIAs), N 1
[10] = Day 2, bortezomib 1.0 mg/m^2, group B (not taking HEIAs), N 13, median (range)
[11] = Day 2, bortezomib 1.3 mg/m^2, group A (taking HEIAs), N 1
[12] = Day 2, bortezomib 1.3 mg/m^2, group B (not taking HEIAs), N 6, median (range)
[13] = Day 2, bortezomib 1.5 mg/m^2, group A (taking HEIAs), N 1
[14] = Day 2, bortezomib 1.5 mg/m^2, group B (not taking HEIAs), N 1
[15] = Day 9, bortezomib 1.0 mg/m^2, group A (taking HEIAs), N 1
[16] = Day 9, bortezomib 1.0 mg/m^2, group B (not taking HEIAs), N 13, median (range)
[17] = Day 9, bortezomib 1.3 mg/m^2, group A (taking HEIAs), N 1
[18] = Day 9, bortezomib 1.3 mg/m^2, group B (not taking HEIAs), N 6, median (range)

For `O=C1NC(=O)C(c2ccccc2)(c2ccccc2)N1` [phenytoin], the serum phenytoin levels [1] was “within the therapeutic range”.
With `Cn1nnc2c(C(N)=O)ncn2c1=O` [temozolomide] the “recommended dose for phase 2 studies, temozolomide in the combination” value ([2]; patients not taking HEIAs, days 1–5, every 28 days) was 200 mg/m^2, the “MTD of temozolomide in combination with bortezomib” value ([2]; patients not taking HEIAs, days 1–5 of a 28-day cycle) was 200 mg/m^2 and the “MTD of temozolomide in combination with bortezomib” value [2, 8] was 200 mg/m^2/dose. The “individual MTD (single agent)” value ([3]; temozolomide alone) was 200 mg/m^2.
For `CC(C)C[C@H](NC(=O)[C@H](Cc1ccccc1)NC(=O)c1cnccn1)B(O)O` [bortezomib], the “MTD of bortezomib in combination with temozolomide” value ([2]; patients not taking HEIAs, days 2, 5, 9, 12 of a 28-day cycle) was 1.3 mg/m^2, the “recommended dose for phase 2 studies, bortezomib in the combination” value ([2]; patients not taking HEIAs, days 2, 5, 9 and 12, every 28 days) was 1.3 mg/m^2 and the “MTD of bortezomib in combination with temozolomide” value [2, 8] was 1.3 mg/m^2/dose. For the same molecule, the “individual MTD (single agent)” value ([3]; bortezomib alone) was 1.6 mg/m^2, the “mean increase in systemic exposure of bortezomib with ketoconazole” value [4] was 35% and the “MTD of single agent bortezomib” value ([5]; recurrent malignant glioma patients not taking HEIAs) was 1.7 mg/m^2. For the same molecule, the “MTD of single agent bortezomib” value ([5]; recurrent malignant glioma patients receiving concurrent HEIAs) was 2.5 mg/m^2, the half-life ([6]; 1 mg/m2) was 678 min and the half-life ([6]; 1.3 mg/m2) was 744 min. For the same molecule, the half-life ([6]; 1.5 mg/m2) was 384 min, the Cmax ([6]; iv, 1 mg/m^2) was 65.5 ng/mL and the “AUC 0–∞” value [7, 9] was 20.8 µg·h/L. For the same molecule, the CLsys [7, 9] was 115.7 L/h, the “AUC 0–∞” value [7, 10] was 33.6 (21–106) ug/l × h and the CLsys [7, 10] was 46.6 (17–90) l/h. The “Elimination T1/2” value [7, 10] was 12.7 (2–21) h, the “AUC 0–∞” value [7, 11] was 40.4 µg·h/L and the CLsys [7, 11] was 64.4 L/h. The “AUC 0–∞” value [7, 12] was 56.1 (34–97) ug/l × h, the CLsys [7, 12] was 44.0 (21–81) l/h and the “Elimination T1/2” value [7, 12] was 18.8 (13–26) h. The “AUC 0–∞” value [7, 13] was 30.6 µg·h/L, the CLsys [7, 13] was 94.8 L/h and the “AUC 0–∞” value [7, 14] was 137.4 µg·h/L. For the same molecule, the CLsys [7, 14] was 16.0 L/h, the “AUC 0–∞” value [7, 15] was 30.7 µg·h/L and the CLsys [7, 15] was 78.1 L/h. For the same molecule, the “Elimination T1/2” value [7, 15] was 15.5 h, the “AUC 0–∞” value [7, 16] was 86.8 (32–216) ug/l × h and the CLsys [7, 16] was 20.7 (9–59) l/h. For the same molecule, the “AUC 0–∞” value [7, 17] was 72.4 µg·h/L, the CLsys [7, 17] was 35.9 L/h and the “Elimination T1/2” value [7, 17] was 11.1 h. For the same molecule, the “AUC 0–∞” value [7, 18] was 120.0 (78–206) ug/l × h, the CLsys [7, 18] was 21.2 (10–33) l/h and the “Elimination T1/2” value [7, 18] was 18.9 (12–41) h. The “CLsys on day 9 as percent of the CLsys on day 2” value ([7]; median percent change, P < 0.01, paired Wilcoxon test, all patients with PK) was 51% and the “rapid initial decline of plasma concentration” value ([7]; within the first few hours after the dose, both groups) was 100 fold.
